Results from patent US6479056B1, “Live vaccine constituting minor risk for humans” (priority 1994, dated 2002).

What follows are molecules tested on wild strains (assay: MHK of antibiotics for wild strains).
Assay type: cell-based, Salmonella

Row | SMILES | MHK
1 | O=C(N[C@H](CO)[C@H](O)c1ccc([N+](=O)[O-])cc1)C(Cl)Cl [chloramphenicol] | (Berlin-Chemie) 2.0 ug/ml
2 | O=C(O)c1cn(C2CC2)c2cc(N3CCNCC3)c(F)cc2c1=O [ciprofloxacin] | (Bayer) wild strains MHK 0.05 ug/ml
3 | C[C@H]1c2cccc(O)c2C(=O)C2=C(O)[C@]3(O)C(=O)C(C(N)=O)=C(O)[C@@H](N(C)C)[C@@H]3[C@@H](O)[C@@H]21 [doxycycline] | (Jenapharm) wild strains MHK 4.0 ug/ml
4 | CC[C@H]1OC(=O)[C@H](C)[C@@H](O[C@H]2C[C@@](C)(OC)[C@@H](O)[C@H](C)O2)[C@H](C)[C@@H](O[C@@H]2O[C@H](C)C[C@H](N(C)C)[C@H]2O)[C@](C)(O)C[C@@H](C)C(=O)[C@H](C)[C@@H](O)[C@]1(C)O [erythromycin] | (Abbott) wild strains MHK 60.0 ug/ml
5 | CCn1cc(C(=O)O)c(=O)c2ccc(C)nc21 [nalidixic acid] | (CHINOIN, Budapest) wild strains MHK 6.2 ug/ml
6 | [H]/N=C(/N)N[C@H]1[C@H](O)[C@@H](O)[C@H](O[C@@H]2O[C@@H](C)[C@](O)(C=O)[C@H]2O[C@@H]2O[C@@H](CO)[C@H](O)[C@@H](O)[C@@H]2NC)[C@@H](N/C(N)=N\[H])[C@@H]1O [streptomycin] | (Jenapharm) wild strains MHK 6.2 ug/ml
